# Values joined by “and” are separate entries in the source; they are usually repeats but may differ in a detail not shown here. Equal entries are not always repeated. Where two headings read alike, the source gives them in different places.
# Experiments:
# [1] = Stability in whole blood (long term, freeze and thaw, on bench); assay type: in vitro ADME, human; conditions: for Long term stability, mean concentration found: -80°C, 92 days; for On bench stability, mean concentration found: on bench 3.3 hours
# Procedure: Owing to the scarcity of mouse blood, the assay was developed and validated using human whole blood and then cross validated with mice whole blood to ensure that the same results were obtained in the same matrix of both species. NP046 was stable for 100 days in stock solutions of methanol and acetonitrile when stored at room temperature and -20 °C. It was stable in whole blood on bench for 3.3 hours while waiting for extraction, and was stable after three freeze-thaw cycles too.
# [2] = Non-specific binding to the micro-partition device (ultrafiltration); assay type: in vitro ADME; conditions: PBS pH 7.4
# Procedure: PPB (plasma protein binding), the extent to which a drug binds to protein in plasma, can affect the PK-PD properties of a drug. Thus, determining the PPB property of a drug in the early stage of drug development process is crucial and a prerequisite for lead prioritization. Initially the PPB assay was performed using an ultrafiltration method [see Additional file 3], which depends on centrifugal force to move the unbound analyte of interest through a size-selective membrane. Ultrafiltration is recommended for the determination of PPB property if the non-specific binding (NSB) of the test drug to the micro-partition device is less than 5%. If NSB > 5%, an alternative technique such as equilibrium dialysis or ultracentrifugation should be used.
# Procedure for the determination of nonspecific binding by Ultrafiltration (procedure was adopted from Dow, 2002; with a slight modification).
# 0.01 M PBS, pH 7.4, was prepared by dissolving 4 g of NaCl, 0.1 g of KCl, 0.722 g of Na2HPO4, and 0.12 g of KH2PO4 with water to a final volume of 500 ml.
# Primary stock solutions of TK900D, TK900E, and NP046 at 100 µg/ml; and secondary stock solutions at 1 µg/ml in methanol were prepared. […]
# The ultrafiltrate were extracted and analysed quantitatively using the validated LC-MS/MS bioanalytical drug assay methods specified in Chapters 8 and 9.
# The %NSB were calculated using the equation: […]
# [3] = In vivo PK evaluation in mice (blood, LC-MS/MS, non-compartmental analysis); design: species or system male C57BL/6 mice; conditions: for concentration at 7 h: read-out: mean blood concentration at seven hours after dosing
# Procedure: The in vivo PK properties of NP046 were evaluated following oral (50 and 10 mg/kg) and IV (5 mg/kg) administration of the compound in water to male C57BL/6 mice (n = 5). Blood samples were collected via tail bleeding in heparinized tubes at predetermined sampling times on ice, and were stored at -80°C until analysis. Despite the critical problem of obtaining numerous blood samples from a mouse without compromising the health/safety of the animal, blood samples at all the sampling times, i.e. 0.17, 0.5, 1, 3, 5 and 7 hours for the IV dose groups, and 0.5, 1, 3, 5 and 7 hours for the oral dose groups were collected from each mouse. The extraction volume during sample analysis was targeted at the lowest possible volume (20 μl) thereby minimizing the total volume of blood harvested from the animal.
# Blood samples collected from mice following the administration of NP046 together with the calibration standards (STDs) and quality controls (QCs) of NP046 were analyzed using a validated LC-MS/MS assay (for details of the LC-MS/MS assay see Additional file 2). Concentration vs time profiles were constructed and using Summit PK software the data were processed to obtain the PK properties of NP046.
# Blood samples collected from mice after the administration of NP046, together with the calibration standards (STDs) and quality controls (QCs), were analysed using a fully validated LC-MS/MS assay. NP046 concentrations were detectable for up to seven hours after oral and IV dosing. Concentration vs time profiles (Figures 3 and 4) were constructed and the data processed with Summit PK software (non-compartmental analysis) to obtain the PK parameters as presented in Table 2. The LC-MS/MS method performed very well; NP046 concentrations in the mice were detectable for up to seven hours after both 50 and 10 mg/kg oral dosing, with mean concentrations of 0.05 and 0.02 μM, respectively.
# [4] = whole blood, nominal High (799.9)
# [5] = whole blood, nominal Low (4.999)
# [6] = male, C57BL/6, whole blood, IV 5 mg/kg, mouse
# [7] = male, C57BL/6, whole blood, oral 10 mg/kg, mouse
# [8] = male, C57BL/6, whole blood, oral 50 mg/kg, mouse
smiles,measurement,setting,value
"Oc1cc(CCCc2ccc(F)cc2)ccc1CN1CCCCC1 [NP046, 5-(3-(4-fluorophenyl)propyl)-2-(piperidin-1-ylmethyl)phenol]",stability in whole blood on bench,[1]; 3.3 hours while waiting for extraction,stable
same,long term matrix stability,[1]; whole blood at -80°C for 92 days,stable
same,"Long term stability, mean concentration found",[1]; [4],732. ng/ml
same,"Long term stability, mean concentration found",[1]; [5],5.081 ng/mL
same,"On bench stability, mean concentration found",[1]; [4],716.9 ng/mL
same,"On bench stability, mean concentration found",[1]; [5],5.370 ng/mL
same,stability after freeze-thaw cycles,"[1]; whole blood, three freeze-thaw cycles",stable
same,"Freeze and thaw stability, mean concentration found","[1]; whole blood, three freeze-thaw cycles, nominal High (799.9)",718.6 ng/mL
same,"Freeze and thaw stability, mean concentration found","[1]; whole blood, three freeze-thaw cycles, nominal Low (4.999)",5.037 ng/mL
same,NSB (non-specific binding to the micro-partition device),[2],> 5%
same,AUC 0 - ∞,"[3]; IV 5 mg/kg, mouse blood",248 ± 12.6 µmol·min/L
same,half-life,"[3]; male, C57BL/6, whole blood, other: oral and IV (range over both), range over oral (50 and 10 mg/kg) and IV (5 mg/kg) groups, mouse, read-out: mean half-life",3.1 to 4.4 h
same,Vd,[3]; [6],16.9 ± 1.3 L/kg
same,half-life,"[3]; male, C57BL/6, whole blood, IV 5 mg/kg, mouse blood, mean ± S.E.M, n = 5, read-out: Apparent t 1/2 (converted)",3.2 ± 0.35 h
same,clearance,"[3]; male, C57BL/6, whole blood, IV 5 mg/kg, mouse, read-out: Blood CL total",62.2 ± 3 mL/min/kg
same,concentration at 7 h,[3]; [6],140 nM
same,Tmax,[3]; [7],0.8 h
same,bioavailability,[3]; [7],6 ± 2.9%
same,Cmax,"[3]; male, C57BL/6, whole blood, oral 10 mg/kg, mouse blood",130 ± 60 nM
same,half-life,"[3]; male, C57BL/6, whole blood, oral 10 mg/kg, mouse blood, mean ± S.E.M, n = 5, read-out: Apparent t 1/2 (converted)",3.1 ± 0.46 h
same,concentration at 7 h,[3]; [7],20 nM
same,Tmax,[3]; [8],0.5 h
same,bioavailability,[3]; [8],3.2 ± 0.47%
same,Cmax,"[3]; male, C57BL/6, whole blood, oral 50 mg/kg, mouse blood",470 ± 100 nM
same,half-life,"[3]; male, C57BL/6, whole blood, oral 50 mg/kg, mouse blood, mean ± S.E.M, n = 5, read-out: Apparent t 1/2 (converted)",4.4 ± 0.6 h
same,concentration at 7 h,[3]; [8],50 nM
same,AUC 0 - ∞,"[3]; oral 10 mg/kg, mouse blood, 10 mg/kg",30 µmol·min/L and 30 ± 14.7 µmol·min/L
same,AUC 0 - ∞,"[3]; oral 50 mg/kg, mouse blood, 50 mg/kg",80 µmol·min/L and 80 ± 8.8 µmol·min/L

# — paper PMC4326489, “Efficacy and pharmacokinetic evaluation of a novel anti-malarial compound (NP046) in a mouse model” (Malaria Journal, 2015)
